Measurements taken from patent US8486924B2, “Taxane delivery system” (Celator Pharmaceuticals, Inc., priority 2007, dated 2013).
Where two headings read alike, the source gives them in different places.

Columns and labels:
[1] = tested on: MCF-7 human tumor cell line; details: read-out: IC50 values MCF-7; prodrug/POPC/2kPS3k (1:1:2) formulations; 72 hours; MTT; ± SD
[2] = tested on: A2780 human tumor cell line; assay: MTT growth inhibition, A2780 cells, 72 hours; details: read-out: IC50 values A2780, prodrug/POPC/2kPS3k (1:1:2) formulations, ± SD
[3] = tested on: HT29 human colon carcinoma cells; details: Q4Dx6, nanoparticle formulations; for therapeutic activity in HT29 model: 34 μmol/kg dose; for treatment induced delay in reaching a mean tumor size of 500 mm^3: HT29 model, 36 μmol/kg
Experimental: Female athymic nude mice (7-8 weeks old) were inoculated subcutaneously with 100 μl HT29 human colon carcinoma cells (2×10^6 cells) using a 26 gauge needle. Mice were randomly grouped (n=6/group) with a mean tumor size between 80 and 120 mg prior to first treatment. […] Subsequent injections were made according to the designated schedule. Tumor length and width measurements, body weight and in life observations were recorded 2-3 times per week. Tumor weight was calculated according to the formula (L×W^2)/2.
The relative efficacies of nanoparticle formulations of 1, 2, 4, 5, 6 and 7 were determined in the HT29 model using a 36 μmol/kg dose on a Q4Dx6 schedule (FIG. 3). Saline was used as a negative control.
The activity of 7 in POPC/2.5kPS3k nanoparticle formulations relative to paclitaxel was determined by comparing the efficacy of doses ranging from 0.25 to 3 mole equivalents of paclitaxel (FIG. 4) in the HT29 tumor model. Taxol® dosed at 23 μmol/kg on a Q2Dx5 schedule was used as a positive control.
The tumor growth data was analyzed by two methods to determine what dose of 7 would be equivalent to the Taxol® positive control.

[4] = tested on: MCF-7 breast carcinoma cell line; details: literature reference 7; cited from earlier work
[5] = unbuffered processed plasma sample
Source text: Methanol:acetonitrile 1:4 (v:v) was effective in near complete precipitation of plasma proteins and liberation of the prodrug from the nanoparticle.

[6] = volume weighted average
Experimental: The prodrug, co-lipid and stabilizer polymers (typically on a 1:1:2 w/w basis) were dissolved in ethanol/THF (4:1) at a concentration of 40 mg/ml. The solvent was rapidly diluted with water using a four port CVIJ mixer^13, 14 with flow rates set at […] (solvent/water/water/water). Flow rates were controlled using Harvard Apparatus PHD2000 syringe pumps. The resultant solution was then dialyzed against water to remove residual solvent. […] When higher concentrations were required the dialyzed solution was diluted with equi-volumes of 600 mM sucrose and then concentrated using a 100 kD, 0.5 mm lumen, 60 cm path length MidGee hoop cartridge (GE Healthcare Life Sciences, Piscataway, N.J.) with a peristaltic pump. Particle size was determined using a Malvern Zetasizer Nano-ZS particle sizer and reported as volume weighted data.
Formulations were composed of a prodrug, a co-lipid and an amphipathic stabilizer in a weight ratio of 1:1:2, respectively at a concentration of 40 mg per mL of solvent. […] Poly(ethylene glycol)-b-polystyrene (2kPS3k or 2.5kPS3k) was used as the amphipathic stabilizer. Other stabilizers may also be used.

[7] = mouse, in vivo
Experimental: Athymic nude mice (n=3/timepoint) were injected iv with test samples (10 μl/g body weight, to a maximum of 250 μl). Blood was collected at the designated time point by cardiac puncture and placed into EDTA coated microtainer tubes (BD Biosciences). The tubes were centrifuged at 2800 rpm for 10 minutes. Plasma was recovered and 50 μl aliquots analyzed by HPLC for drug content. Samples containing ^3H—CHE (50 μl) were diluted with PicoFluor40™ scintillation fluid (Packard) and counted on a Beckman-Coulter LS 6500 Multipurpose scintillation counter. The total drug (counts) per mouse in the blood compartment was calculated assuming a plasma volume of 0.04125 mL per gram of body weight.
Elimination studies tracking both the prodrug and the particle were conducted to obtain a more accurate description of the partitioning behavior of the prodrugs in vivo (FIG. 1). Prodrug elimination was followed by HPLC, while particle elimination rates were determined by labeling nanoparticles with tritiated cholesterylhexadecyl ether (3H—CHE).
Formulations comprised of 1/VES/2kPS3k (1:1:2) and 2/VES/2kPS3k (1:1:2) were labeled with trace amounts of ^3H—CHE and plasma levels of both the label and prodrug were monitored in Foxn1^nu mice (FIG. 1, Panel A).
Effect of prodrug partitioning on plasma drug elimination was determined. The prodrug panel was screened using prodrug/POPC/2kPS3k (1:1:2) nanoparticles in Foxn1^nu mice to determine elimination rates for the different prodrug conjugates (FIG. 2). […] Conjugates were formulated at a concentration of 0.7 mg/mL.
In order to estimate the partitioning half-life for each prodrug, it was assumed that 1 tracked the particle elimination rate based on the results discussed above. The elimination of all other prodrugs were then fitted to four parameter double exponential decay curves and normalized against 1.

[8] = vortexing 30 seconds
Experimental: The physical stability of formulations was investigated by examining changes in particle size after vortexing prodrug/co-lipid/2.5kPS3k (1:1:2) nanoparticles in water, 150 mM saline or 300 mM sucrose (Table 1). […] The increase in particle size was monitored by using dynamic light scattering to measure the Z average (the intensity weighted mean size of the particle distribution) value for samples before and after vigorous vortexing. The change in the Zave value was used as surrogate readout for the formation of aggregates or precipitates resulting from mechanical instability, where a higher value for ΔZave indicated a higher level of aggregation or precipitation (Table 1).

[9] = prodrug/POPC/2.5kPS3k (1:1:2) nanoparticles in water
[10] = co-lipid POPC, prodrug/co-lipid/2.5kPS3k (1:1:2)

## 2′-O-(4″-O-tocopherylsuccinoyl)-paclitaxel [Prodrug 1]
[1]
  IC50: 158 ± 72 nM
[2]
  IC50: 192 nM
[3]
  therapeutic activity in HT29 model: no evidence of any therapeutic activity

## CCCCCCCCCCCCCCC(Br)C(=O)O[C@@H](C(=O)O[C@H]1C[C@@]2(O)[C@@H](OC(=O)c3ccccc3)[C@@H]3[C@]4(OC(C)=O)CO[C@@H]4C[C@H](O)[C@@]3(C)C(=O)[C@H](OC(C)=O)C(=C1C)C2(C)C)[C@@H](NC(=O)c1ccccc1)c1ccccc1 (stereo partly shown) [2′-(2″-bromohexadecanoyl)paclitaxel]
[4]
  IC50: 70 nM

## CCCCCCCCCCCCCCCC(=O)OC(C(=O)OC1CC2(O)C(OC(=O)c3ccccc3)C3C4(OC(C)=O)COC4CC(O)C3(C)C(=O)C(OC(C)=O)C(=C1C)C2(C)C)C(NC(=O)c1ccccc1)c1ccccc1 (stereo not shown) [2′-O-hexadecanoylpaclitaxel]
[4]
  IC50: 8600 nM

## CC(=O)O[C@H]1C(=O)[C@@]2(C)[C@H]([C@H](OC(=O)c3ccccc3)[C@]3(O)C[C@H](OC(=O)[C@H](O)[C@@H](NC(=O)c4ccccc4)c4ccccc4)C(C)=C1C3(C)C)[C@]1(OC(C)=O)CO[C@@H]1C[C@@H]2O [Paclitaxel]
[4]
  IC50: < 1 nM

## CCCCCCCC/C=C\CCCCCCCCOC(=O)CCC(=O)O[C@@H](C(=O)O[C@H]1C[C@@]2(O)[C@@H](OC(=O)c3ccccc3)[C@@H]3[C@]4(OC(C)=O)CO[C@@H]4C[C@H](O)[C@@]3(C)C(=O)[C@H](OC(C)=O)C(=C1C)C2(C)C)[C@@H](NC(=O)c1ccccc1)c1ccccc1 [Prodrug 2, 2′-O-(4″-O-oleylsuccinoyl)-paclitaxel]
[5]; after 68 hours
  prodrug remaining after processing plasma samples: approximately 25%
[6]; [9]
  Diameter: 26 nm
[7]; iv
  prodrug plasma clearance compared with 3H-CHE label: cleared significantly faster
[1]
  IC50: 67 ± 5.9 nM
[2]
  IC50: 75.1 nM
[8]; [10]
  ΔZave 150 mM saline: 43 nm
  ΔZave 300 mM sucrose: 10 nm
  ΔZave water: 20 nm
[3]
  therapeutic activity in HT29 model: no evidence of any therapeutic activity

## CC(=O)OC1C(=O)C2(C)C(O)CC3OCC3(OC(C)=O)C2C(OC(=O)c2ccccc2)C2(O)CC(OC(=O)C(OC(=O)COCC(=O)Oc3c(C)c(C)c4c(c3C)CCC(C)(CCCC(C)CCCC(C)CCCC(C)C)O4)C(NC(=O)c3ccccc3)c3ccccc3)C(C)=C1C2(C)C (stereo not shown) [Prodrug 3, 2′-O-(5″-O-tocopheryldiglycoloyl)-paclitaxel]
[6]; [9]
  Diameter: 24 nm
[7]
  partitioning half life: approximately 13 h
[1]
  IC50: 13.4 ± 2.4 nM
[2]
  IC50: 25.3 nM
[8]; [10]
  ΔZave 150 mM saline: 55 nm
  ΔZave water: 125 nm

## CCCCCCCC/C=C\CCCCCCCCOC(=O)COCC(=O)O[C@@H](C(=O)O[C@H]1C[C@@]2(O)[C@@H](OC(=O)c3ccccc3)[C@@H]3[C@]4(OC(C)=O)CO[C@@H]4C[C@H](O)[C@@]3(C)C(=O)[C@H](OC(C)=O)C(=C1C)C2(C)C)[C@@H](NC(=O)c1ccccc1)c1ccccc1 [Prodrug 4, 2′-O-(5″-O-oleyldiglycoloyl)-paclitaxel]
[6]; [9]
  Diameter: 22 nm
[1]
  IC50: 15.9 ± 0.7 nM
[2]
  IC50: 28.4 nM
[8]; [10]
  ΔZave 150 mM saline: 25 nm
  ΔZave 300 mM sucrose: 5 nm
  ΔZave water: 15 nm
[3]
  treatment induced delay in reaching a mean tumor size of 500 mm^3: 3 days

## CCCCCCCCCCCCCCCCCCOC(=O)COCC(=O)O[C@@H](C(=O)O[C@H]1C[C@@]2(O)[C@@H](OC(=O)c3ccccc3)[C@@H]3[C@]4(OC(C)=O)CO[C@@H]4C[C@H](O)[C@@]3(C)C(=O)[C@H](OC(C)=O)C(=C1C)C2(C)C)[C@@H](NC(=O)c1ccccc1)c1ccccc1 [Prodrug 5, 2′-O-(5″-O-octadecyldiglycoloyl)-paclitaxel]
[6]; no co-lipid, prodrug/2.5kPS3k nanoparticles in water
  Diameter: 28 nm
[6]; [9]
  Diameter: 21 nm
[6]; prodrug/VES/2.5kPS3k (1:1:2) nanoparticles in water
  Diameter: 7 nm
[7]
  partitioning half life: 1.7 h
[1]
  IC50: 1.1 ± 1.5 nM
[2]
  IC50: 20.9 ± 10.9 nM
[8]; [10]
  ΔZave 150 mM saline: 24 nm
  ΔZave 300 mM sucrose: 7 nm
  ΔZave water: 20 nm
[8]; co-lipid VES, 2.5kPS3k
  ΔZave 150 mM saline: 372 nm
  ΔZave 300 mM sucrose: 10 nm
  ΔZave water: 3 nm
[8]; no co-lipid, 2.5kPS3k
  ΔZave 150 mM saline: 774 nm
  ΔZave 300 mM sucrose: 71 nm
  ΔZave water: 109 nm
[3]
  treatment induced delay in reaching a mean tumor size of 500 mm^3: 4 days

## CCCCCCCCCCCCCCCCCCCCOC(=O)COCC(=O)O[C@@H](C(=O)O[C@H]1C[C@@]2(O)[C@@H](OC(=O)c3ccccc3)[C@@H]3[C@]4(OC(C)=O)CO[C@@H]4C[C@H](O)[C@@]3(C)C(=O)[C@H](OC(C)=O)C(=C1C)C2(C)C)[C@@H](NC(=O)c1ccccc1)c1ccccc1 [Prodrug 6, 2′-O-(5″-O-cosanyldiglycoloyl)-paclitaxel]
[5]; after 9 hours
  hydrolysis of prodrug after processing plasma samples: completely hydrolyzed
[6]; [9]
  Diameter: 23 nm
[7]
  partitioning half life: ~6.5 h
[1]
  IC50: 16.6 ± 4.5 nM
[2]
  IC50: 29 ± 1.3 nM
[8]; [10]
  ΔZave 150 mM saline: 26 nm
  ΔZave 300 mM sucrose: 36 nm
  ΔZave water: 21 nm
[3]
  treatment induced delay in reaching a mean tumor size of 500 mm^3: 15 days

## CC(=O)O[C@H]1C(=O)[C@@]2(C)[C@H]([C@H](OC(=O)c3ccccc3)[C@]3(O)C[C@H](OC(=O)[C@H](OC(=O)COCC(=O)O[C@H]4CC[C@@]5(C)C(=CC[C@H]6[C@@H]7CC[C@H]([C@H](C)CCCC(C)C)[C@@]7(C)CC[C@@H]65)C4)[C@@H](NC(=O)c4ccccc4)c4ccccc4)C(C)=C1C3(C)C)[C@]1(OC(C)=O)CO[C@@H]1C[C@@H]2O [Prodrug 8, 2′-O-(5″-O-cholesteryldiglycoloyl)-paclitaxel]
[6]; [9]
  Diameter: 23 nm
[7]
  partitioning half life: approximately 21 h
[1]
  IC50: 24.1 ± 0.6 nM
[2]
  IC50: 27 ± 1.1 nM
[8]; [10]
  ΔZave 150 mM saline: 42 nm
  ΔZave 300 mM sucrose: 41 nm
  ΔZave water: 47 nm

## CCCCCCCCCCCCCC(=O)OC[C@H](COC(=O)COCC(=O)O[C@@H](C(=O)O[C@H]1C[C@@]2(O)[C@@H](OC(=O)c3ccccc3)[C@@H]3[C@]4(OC(C)=O)CO[C@@H]4C[C@H](O)[C@@]3(C)C(=O)[C@H](OC(C)=O)C(=C1C)C2(C)C)[C@@H](NC(=O)c1ccccc1)c1ccccc1)OC(=O)CCCCCCCCCCCCC [Prodrug 9, 2′-O-(5″-O-(1′″,2′″-dimyristoyl-sn-glycero)diglycoloyl)-paclitaxel]
[6]; [9]
  Diameter: 23 nm
[7]
  partitioning half life: 8.5 h
[1]
  IC50: 32.2 ± 1.3 nM
[2]
  IC50: 34.7 ± 1.3 nM
[8]; [10]
  ΔZave 150 mM saline: 171 nm
  ΔZave 300 mM sucrose: 0 nm
  ΔZave water: 167 nm
